8 molecules from PubChem BioAssay (NCI) can be followed below.

Some test systems named below: OVCAR-5 ovarian; KM20L2 colon; NCI/ADR-RES ovarian; SR leukemia; SN12C renal; M14 melanoma; HS 578T breast; MOLT-4 leukemia; SNB-78 CNS; NCI-H460 lung.
Assay in all cases: NCI-60 cell line screen, 48 h

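Protocol summary: plate cells (96-well), add compound at 5 concentrations, incubate 48 h, interpolate endpoints linearly. Definition used: TGI = concentration required for complete inhibition of growth.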

`CCN(CC)CCn1c2ccccc2c(=O)c2c(O)ccc(O)c21`: the TGI was over 78.5 µM in the assay with OVCAR-5 ovarian; over 100 µM in the assay with KM20L2 colon; 44 µM in the assay on NCI/ADR-RES ovarian; 26.2 µM in the assay with SR leukemia; 45.6 µM in the assay on SN12C renal; 63.6 µM in the assay on M14 melanoma. Besides, the TGI in the assay with HS 578T breast was 53.5 µM; in the assay with MOLT-4 leukemia, 69.3 µM; with SNB-78 CNS, over 60.2 µM; in the assay on NCI-H460 lung, over 71.9 µM.

On to `CN(C)C=[N+]=[N-]`, for which the TGI with OVCAR-5 ovarian, with KM20L2 colon, in the assay with SR leukemia, in the assay on SN12C renal, with M14 melanoma and in the assay with MOLT-4 leukemia was over 100 µM throughout. In addition, the TGI in the assay with SNB-78 CNS and in the assay with NCI-H460 lung was over 100 µM throughout.

As to `c1ccc2cc3[s+]snc3cc2c1`, the TGI in the assay with OVCAR-5 ovarian, in the assay on KM20L2 colon, in the assay with SR leukemia, in the assay with SN12C renal, in the assay on M14 melanoma and in the assay with MOLT-4 leukemia was over 100 µM throughout. The TGI in the assay with SNB-78 CNS and with NCI-H460 lung was over 100 µM each time.

On to `C/C=C1/CCC2c3[nH]c4ccccc4c3CCN2C1` (stereo unspecified), for which the TGI is over 100 µM in the assay with OVCAR-5 ovarian; over 100 µM with KM20L2 colon; over 100 µM in the assay with SR leukemia; over 100 µM in the assay with SN12C renal; 33.2 µM in the assay on M14 melanoma; over 100 µM in the assay on MOLT-4 leukemia. For the same molecule, the TGI in the assay on SNB-78 CNS and with NCI-H460 lung was over 100 µM throughout.

For `COc1ccccc1C1c2cc3c(cc2OC(O)(CO)C1C(=O)O)OCO3` (stereo unspecified) (tested in a mixture with another compound), the TGI with OVCAR-5 ovarian, with KM20L2 colon, in the assay with SR leukemia, in the assay on SN12C renal, in the assay on M14 melanoma and in the assay with MOLT-4 leukemia was over 100 µM each time. Further, the TGI in the assay on SNB-78 CNS and in the assay on NCI-H460 lung was over 100 µM in each case.

As for `C=C1C(=O)OC2C=C(CCC(C)=O)C(C)C(OC(C)=O)CC12` (stereo unspecified), the TGI in the assay with OVCAR-5 ovarian is 29.6 µM; with KM20L2 colon, 16.4 µM; in the assay on SR leukemia, 52.9 µM; in the assay on SN12C renal it was 32.1 µM; in the assay on M14 melanoma, 20.7 µM; with MOLT-4 leukemia, 34.1 µM. The TGI in the assay on SNB-78 CNS is 27.4 µM; in the assay with NCI-H460 lung, 40.6 µM.

`O=C(O)CCC(NC(=O)c1ccccc1)C(=O)O` (stereo unspecified): the TGI with OVCAR-5 ovarian, in the assay on KM20L2 colon, in the assay with SR leukemia, with SN12C renal, in the assay on M14 melanoma and with MOLT-4 leukemia was over 100 µM throughout. The TGI with SNB-78 CNS and in the assay on NCI-H460 lung was over 100 µM throughout.

Regarding `O=C1C2C=CC(C2)C(c2ccc(O)cc2)N1O` (stereo unspecified), the TGI in the assay with OVCAR-5 ovarian, with KM20L2 colon, in the assay with SR leukemia, in the assay on SN12C renal, with M14 melanoma and in the assay on MOLT-4 leukemia was over 100 µM each time. In addition, the TGI in the assay on SNB-78 CNS and with NCI-H460 lung was over 100 µM throughout.
